# Reference: ChEMBL document CHEMBL1201862, “PubChem BioAssay data set” (2004)
#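 Compound exposure: 48 hours, 5 concentrations, 96-well plates. GI50: concentration for 50% inhibition of growth.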 Active and inactive are the calls of the source. No stated cut-off is given here; in the data, active = GI50 up to about 1.1 µM and inactive = higher.
# Experiments:
# Test in all cases: NCI tumour cell line growth inhibition, 48 h
# 786-0 = system: 786-0
# A498 = system: A498
# A549 = system: A549
# CAKI-1 = system: CAKI-1
# CCRF-CEM = system: CCRF-CEM
# COLO 205 = system: COLO 205
# DLD-1 = system: DLD-1
# DMS-114 = system: DMS-114
# DMS-273 = system: DMS-273
# EKVX = system: EKVX
# HCC 2998 = system: HCC 2998
# HCT-116 = system: HCT-116
# HCT-15 = system: HCT-15
# HL-60 = system: HL-60
# HOP-62 = system: HOP-62
# HOP-92 = system: HOP-92
# HT-29 = system: HT-29
# IGROV-1 = system: IGROV-1
# K562 = system: K562
# KM12 = system: KM12
# LOX IMVI = system: LOX IMVI
# LXFL 529 = system: LXFL 529
# M14 = system: M14
# M19-MEL = system: M19-MEL
# MOLT-4 = system: MOLT-4
# Malme-3M = system: Malme-3M
# NCI-H23 = system: NCI-H23
# NCI-H460 = system: NCI-H460
# NCI-H522 = system: NCI-H522
# OVCAR-3 = system: OVCAR-3
# OVCAR-4 = system: OVCAR-4
# OVCAR-8 = system: OVCAR-8
# RPMI-8226 = system: RPMI-8226
# RXF 393 = system: RXF 393
# RXF 631 = system: RXF 631
# SF-268 = system: SF-268
# SF-295 = system: SF-295
# SF-539 = system: SF-539
# SK-MEL-28 = system: SK-MEL-28
# SK-MEL-2 = system: SK-MEL-2
# SK-MEL-5 = system: SK-MEL-5
# SK-OV-3 = system: SK-OV-3
# SN12C = system: SN12C
# SNB-19 = system: SNB-19
# SNB-75 = system: SNB-75
# SNB-78 = system: SNB-78
# SW-620 = system: SW-620
# TK-10 = system: TK-10
# U-251 = system: U-251
# UACC-257 = system: UACC-257
# UACC-62 = system: UACC-62
# UO-31 = system: UO-31
# XF498 = system: XF498
# ACHN = system: ACHN
# HOP-18 = system: HOP-18
# KM-20L2 = system: KM-20L2
# NCI-H226 = system: NCI-H226
# OVCAR-5 = system: OVCAR-5
# SR = system: SR
smiles,measurement,setting,value
CC1(C)CC(=O)C=C(NC(=O)c2ccccc2)C1,GI50,786-0,> 100 µM (inactive)
same,GI50,A498,> 100 µM (inactive)
same,GI50,A549,> 100 µM (inactive)
same,GI50,CAKI-1,> 100 µM (inactive)
same,GI50,CCRF-CEM,> 100 µM (inactive)
same,GI50,COLO 205,> 100 µM (inactive)
same,GI50,DLD-1,> 100 µM (inactive)
same,GI50,DMS-114,> 100 µM (inactive)
same,GI50,DMS-273,> 100 µM (inactive)
same,GI50,EKVX,> 100 µM (inactive)
same,GI50,HCC 2998,> 100 µM (inactive)
same,GI50,HCT-116,> 100 µM (inactive)
same,GI50,HCT-15,> 100 µM
same,GI50,HL-60,> 100 µM (inactive)
same,GI50,HOP-62,> 100 µM (inactive)
same,GI50,HOP-92,> 100 µM (inactive)
same,GI50,HT-29,> 100 µM (inactive)
same,GI50,IGROV-1,> 100 µM (inactive)
same,GI50,K562,> 100 µM (inactive)
same,GI50,KM12,> 100 µM (inactive)
same,GI50,LOX IMVI,> 100 µM (inactive)
same,GI50,LXFL 529,> 100 µM (inactive)
same,GI50,M14,> 100 µM (inactive)
same,GI50,M19-MEL,> 100 µM (inactive)
same,GI50,MOLT-4,> 100 µM (inactive)
same,GI50,Malme-3M,> 100 µM (inactive)
same,GI50,NCI-H23,> 100 µM (inactive)
same,GI50,NCI-H460,> 100 µM (inactive)
same,GI50,NCI-H522,> 100 µM (inactive)
same,GI50,OVCAR-3,> 100 µM (inactive)
same,GI50,OVCAR-4,> 100 µM (inactive)
same,GI50,OVCAR-8,> 100 µM (inactive)
same,GI50,RPMI-8226,> 100 µM (inactive)
same,GI50,RXF 393,> 100 µM (inactive)
same,GI50,RXF 631,> 100 µM (inactive)
same,GI50,SF-268,> 100 µM (inactive)
same,GI50,SF-295,> 100 µM (inactive)
same,GI50,SF-539,> 100 µM (inactive)
same,GI50,SK-MEL-28,> 100 µM (inactive)
same,GI50,SK-MEL-2,> 100 µM (inactive)
same,GI50,SK-MEL-5,> 100 µM (inactive)
same,GI50,SK-OV-3,> 100 µM (inactive)
same,GI50,SN12C,> 100 µM (inactive)
same,GI50,SNB-19,> 100 µM (inactive)
same,GI50,SNB-75,> 100 µM (inactive)
same,GI50,SNB-78,> 100 µM (inactive)
same,GI50,SW-620,> 100 µM (inactive)
same,GI50,TK-10,> 100 µM (inactive)
same,GI50,U-251,> 100 µM (inactive)
same,GI50,UACC-257,> 100 µM (inactive)
same,GI50,UACC-62,> 100 µM (inactive)
same,GI50,UO-31,> 100 µM (inactive)
same,GI50,XF498,> 100 µM (inactive)
COc1ccc2cccc(C(=N)c3ccc(C)c4c3CCC4)c2c1,GI50,786-0,10.2 µM (inactive)
same,GI50,A498,2.14 µM (inactive)
same,GI50,A549,13.7 µM (inactive)
same,GI50,ACHN,9.98 µM (inactive)
same,GI50,CAKI-1,3.95 µM (inactive)
same,GI50,CCRF-CEM,6.58 µM (inactive)
same,GI50,COLO 205,11.9 µM (inactive)
same,GI50,DMS-114,7.08 µM (inactive)
same,GI50,DMS-273,9.4 µM (inactive)
same,GI50,EKVX,15.5 µM (inactive)
same,GI50,HCC 2998,10.8 µM (inactive)
same,GI50,HCT-116,4.59 µM (inactive)
same,GI50,HCT-15,7.46 µM
same,GI50,HL-60,2.67 µM (inactive)
same,GI50,HOP-18,0.895 µM (active)
same,GI50,HOP-62,7.26 µM (inactive)
same,GI50,HT-29,4.02 µM (inactive)
same,GI50,IGROV-1,6.15 µM (inactive)
same,GI50,K562,2.92 µM (inactive)
same,GI50,KM-20L2,5.82 µM (inactive)
same,GI50,KM12,10.2 µM (inactive)
same,GI50,LOX IMVI,11.7 µM (inactive)
same,GI50,LXFL 529,4.86 µM (inactive)
same,GI50,M14,5.97 µM (inactive)
same,GI50,M19-MEL,9.62 µM (inactive)
same,GI50,MOLT-4,8.63 µM (inactive)
same,GI50,Malme-3M,3.62 µM (inactive)
same,GI50,NCI-H226,12.2 µM (inactive)
same,GI50,NCI-H23,7.57 µM (inactive)
same,GI50,NCI-H460,4.3 µM (inactive)
same,GI50,NCI-H522,3.72 µM (inactive)
same,GI50,OVCAR-3,3.52 µM (inactive)
same,GI50,OVCAR-4,12.2 µM (inactive)
same,GI50,OVCAR-5,6.17 µM (inactive)
same,GI50,OVCAR-8,11.4 µM (inactive)
same,GI50,RXF 393,12.8 µM (inactive)
same,GI50,RXF 631,1.37 µM (inactive)
same,GI50,SF-268,16.4 µM (inactive)
same,GI50,SF-295,5.7 µM (inactive)
same,GI50,SK-MEL-28,13 µM (inactive)
same,GI50,SK-MEL-2,11.9 µM (inactive)
same,GI50,SK-MEL-5,3.9 µM (inactive)
same,GI50,SK-OV-3,14.5 µM (inactive)
same,GI50,SN12C,12 µM (inactive)
same,GI50,SNB-19,11.2 µM (inactive)
same,GI50,SNB-75,11.8 µM (inactive)
same,GI50,SR,2.62 µM (inactive)
same,GI50,SW-620,5.38 µM (inactive)
same,GI50,TK-10,11.6 µM (inactive)
same,GI50,U-251,9.57 µM (inactive)
same,GI50,UACC-257,4.89 µM (inactive)
same,GI50,UACC-62,4.18 µM (inactive)
same,GI50,UO-31,4.45 µM (inactive)
